Experimental data published in patent US10428082B2, “Triazole derivatives of melampomagnolide B and methods of use thereof” (BioVentures, LLC, priority 2016, dated 2019).

How the values were obtained:
Experiment in all cases: NCI 60 growth inhibition
Type in all cases: cell-based, human
[1] = tested on: COLO 205; settings: Homo sapiens; COLO 205, Colon Cancer, Table 2
Experimental: (§1) The above triazole derivatives of melampomagnolide B were evaluated for growth inhibitory properties against an NCI panel of 60 human cancer cell lines derived from nine human cancer cell types, grouped into disease sub-panels that represent leukemia, lung, colon, central nervous system (CNS), melanoma, renal, ovary, breast, and prostate cancer cells. Growth inhibitory (GI50) effects were measured as a function of the variation of optical density as a percentage of control.

[2] = tested on: OVCAR-4; settings: Homo sapiens; OVCAR-4, Ovarian Cancer, Table 2
Experimental: as §1

[3] = tested on: MDA-MB-435; settings: Homo sapiens; MDA-MB-435, Melanoma, Table 2
Experimental: as §1

[4] = tested on: MALME-3M; settings: Homo sapiens, Melanoma, Table 2
Experimental: as §1

[5] = tested on: MDA-MB-468; settings: Homo sapiens; MDA-MB-468, Breast Cancer, Table 2
Experimental: as §1

[6] = tested on: MDA-MB-231/ATCC; settings: Homo sapiens, Breast Cancer, Table 2
Experimental: as §1

[7] = tested on: SNB-75; settings: Homo sapiens; SNB-75, CNS Cancer, Table 2
Experimental: as §1

[8] = tested on: SNB-19; settings: Homo sapiens; SNB-19, CNS Cancer, Table 2
Experimental: as §1

[9] = tested on: TK-10; settings: Homo sapiens; TK-10, Renal Cancer, Table 2
Experimental: as §1

[10] = tested on: SF-295; settings: Homo sapiens; SF-295, CNS Cancer, Table 2
Experimental: as §1

[11] = tested on: OVCAR-5; settings: Homo sapiens; OVCAR-5, Ovarian Cancer, Table 2
Experimental: as §1

[12] = tested on: NCI-H460; settings: Homo sapiens; NCI-H460, Non-Small Cell Lung Cancer, Table 2
Experimental: as §1

[13] = tested on: DU-145; settings: Homo sapiens; DU-145, Prostate Cancer, Table 2
Experimental: as §1

[14] = tested on: SF-539; settings: Homo sapiens; SF-539, CNS Cancer, Table 2
Experimental: as §1

[15] = tested on: NCI-H226; settings: Homo sapiens; NCI-H226, Non-Small Cell Lung Cancer, Table 2
Experimental: as §1

[16] = tested on: KM12; settings: Homo sapiens; KM12, Colon Cancer, Table 2
Experimental: as §1

[17] = tested on: SK-MEL-2; settings: Homo sapiens; SK-MEL-2, Melanoma, Table 2
Experimental: as §1

[18] = tested on: PC-3; settings: Homo sapiens; PC-3, Prostate Cancer, Table 2
Experimental: as §1

[19] = tested on: HCC-2998; settings: Homo sapiens; HCC-2998, Colon Cancer, Table 2
Experimental: as §1

[20] = tested on: IGROV1; settings: Homo sapiens, IGROV-1; IGROV1, Ovarian Cancer, Table 2
Experimental: as §1

[21] = tested on: UACC-257; settings: Homo sapiens; UACC-257, Melanoma, Table 2
Experimental: as §1

[22] = tested on: NCI-H23; settings: Homo sapiens; NCI-H23, Non-Small Cell Lung Cancer, Table 2
Experimental: as §1

[23] = tested on: ACHN; settings: Homo sapiens, Renal Cancer, Table 2
Experimental: as §1

[24] = tested on: UO-31; settings: Homo sapiens; UO-31, Renal Cancer, Table 2
Experimental: as §1

[25] = tested on: RPMI-8226; settings: Homo sapiens; RPMI-8226, Leukemia, Table 2
Experimental: as §1

[26] = tested on: EKVX; settings: Homo sapiens, Non-Small Cell Lung Cancer, Table 2
Experimental: as §1

[27] = tested on: HS 578T; settings: Homo sapiens, Breast Cancer, Table 2
Experimental: as §1

[28] = tested on: HCT-116; settings: Homo sapiens; HCT-116, Colon Cancer, Table 2
Experimental: as §1

[29] = tested on: K-562; settings: Homo sapiens, K562; K-562, Leukemia, Table 2
Experimental: as §1

[30] = tested on: MCF7; settings: Homo sapiens; MCF7, Breast Cancer, Table 2
Experimental: as §1

[31] = tested on: 786-0; settings: Homo sapiens; 786-0, Renal Cancer, Table 2
Experimental: as §1

[32] = tested on: OVCAR-3; settings: Homo sapiens; OVCAR-3, Ovarian Cancer, Table 2
Experimental: as §1

[33] = tested on: SN12C; settings: Homo sapiens, Renal Cancer, Table 2
Experimental: as §1

[34] = tested on: CCRF-CEM; settings: Homo sapiens, Leukemia, Table 2
Experimental: as §1

[35] = tested on: MOLT-4; settings: Homo sapiens; MOLT-4, Leukemia, Table 2
Experimental: as §1

[36] = tested on: A498; settings: Homo sapiens; A498, Renal Cancer, Table 2
Experimental: as §1

[37] = tested on: OVCAR-8; settings: Homo sapiens; OVCAR-8, Ovarian Cancer, Table 2
Experimental: as §1

[38] = tested on: SW-620; settings: Homo sapiens; SW-620, Colon Cancer, Table 2
Experimental: as §1

[39] = tested on: RXF 393; settings: Homo sapiens, RXF 393, RXF 393, Renal Cancer, Table 2
Experimental: as §1

[40] = tested on: A549/ATCC; settings: Homo sapiens, Non-Small Cell Lung Cancer, Table 2
Experimental: as §1

| SMILES | GI50 [1] [nM] | GI50 [2] [nM] | GI50 [3] [nM] | GI50 [4] [nM] | GI50 [5] [nM] | GI50 [6] [nM] | GI50 [7] [nM] | GI50 [8] [nM] | GI50 [9] [nM] | GI50 [10] [nM] | GI50 [11] [nM] | GI50 [12] [nM] | GI50 [13] [nM] | GI50 [14] [nM] | GI50 [15] [nM] | GI50 [16] [nM] | GI50 [17] [nM] | GI50 [18] [nM] | GI50 [19] [nM] | GI50 [20] [nM] | further results |
| --- | --- | --- | --- | --- | --- | --- | --- | --- | --- | --- | --- | --- | --- | --- | --- | --- | --- | --- | --- | --- | --- |
| C=C1C(=O)O[C@H]2[C@H]1CC/C(Cn1cc(-c3ccc(F)cc3)nn1)=C\CC[C@@]1(C)O[C@@H]21 [JVM 4-26] | 450 | 1290 | 1000 | 1400 | 420 | 1220 | 1250 | 3390 | 1240 | 5730 | 1470 | 3660 | 690 | 270 | 2480 | 1700 | 1830 | 2000 | 1740 | 1170 | GI50 [21]: 1470 nM; GI50 [22]: 1780 nM; GI50 [23]: 180 nM; GI50 [24]: 1220 nM; GI50 [25]: 1410 nM; GI50 [26]: 1490 nM; GI50 [27]: 3680 nM; GI50 [28]: 290 nM; GI50 [29]: 940 nM; GI50 [30]: 350 nM; GI50 [31]: 1060 nM; GI50 [32]: 490 nM; GI50 [33]: 1640 nM; GI50 [34]: 240 nM; GI50 [35]: 380 nM; GI50 [36]: 1820 nM; GI50 [37]: 1660 nM; GI50 [38]: 420 nM; GI50 [39]: 870 nM; GI50 [40]: 3370 nM |
| C=C1C(=O)O[C@H]2[C@H]1CC/C(Cn1cc(-c3ccc(OC)cc3)nn1)=C\CC[C@@]1(C)O[C@@H]21 [JVM 4-24, (1aR,7aS,10aS,10bS,E)-5((4-(4-Methoxyphenyl)-1H-1,2,3-triazol-1-yl)methyl)-1a-methyl-8-methylene-2,3,6,7,7a,8,10a,10b-octahydrooxireno[2′,3′:9,10]cyclodeca[1,2-b]furan-9(1aH)-one] | 500 | 1520 | 1140 | 1670 | 890 | 1440 | 1470 | 6920 | 1420 | 11000 | 1710 | 8450 | 1110 | 340 | 1990 | 3510 | 1950 | 9350 | 1980 | 1350 | GI50 [21]: 1780 nM; GI50 [22]: 2060 nM; GI50 [23]: 290 nM; GI50 [24]: 1270 nM; GI50 [25]: 1870 nM; GI50 [26]: 2470 nM; GI50 [27]: 7420 nM; GI50 [28]: 480 nM; GI50 [29]: 1300 nM; GI50 [30]: 420 nM; GI50 [31]: 1240 nM; GI50 [32]: 560 nM; GI50 [33]: 1960 nM; GI50 [34]: 290 nM; GI50 [35]: 1130 nM; GI50 [36]: 2350 nM; GI50 [37]: 2590 nM; GI50 [38]: 490 nM; GI50 [39]: 700 nM; GI50 [40]: 10900 nM |
| C=C1C(=O)O[C@H]2[C@H]1CC/C(Cn1cc(-c3ccccc3)nn1)=C\CC[C@@]1(C)O[C@@H]21 [JVM 3-74, (1aR,7aS,10aS,10bS,E)-1a-Methyl-8-methylene-5-((4-phenyl-1H-1,2,3-triazol-1-yl)methyl)-2,3,6,7,7a,8,10a,10b-octahydrooxireno[2′,3′:9,10]cyclodeca[1,2-b]furan-9(1aH)-one] | 1080 | 3220 | 2370 | 1170 | 950 | 2000 | 6210 | 7870 | 1210 | 7890 | 5700 | 7740 | 2190 | 2010 | 4600 | 8480 | 5500 | 5650 | 6160 | 6950 | GI50 [21]: 3780 nM; GI50 [22]: 5380 nM; GI50 [23]: 940 nM; GI50 [24]: 870 nM; GI50 [25]: 1710 nM; GI50 [26]: 6870 nM; GI50 [27]: 9780 nM; GI50 [28]: 1170 nM; GI50 [29]: 1760 nM; GI50 [30]: 1080 nM; GI50 [31]: 2630 nM; GI50 [32]: 1400 nM; GI50 [33]: 4500 nM; GI50 [34]: 990 nM; GI50 [35]: 1290 nM; GI50 [36]: 7800 nM; GI50 [37]: 2310 nM; GI50 [38]: 1500 nM; GI50 [39]: 1550 nM; GI50 [40]: 5880 nM |
